pEC50: −log10 of the molar value.
Biological target: T1, GECFINDER-Phe3 (Aneurinibacillus migulanus, UniProt P0C061)
T1 construct: gene grsA; GrsA-PheA-PCP; cpEGFP inserted in hinge B, linkers VF-QS
T1 sequence (P0C061 1-617): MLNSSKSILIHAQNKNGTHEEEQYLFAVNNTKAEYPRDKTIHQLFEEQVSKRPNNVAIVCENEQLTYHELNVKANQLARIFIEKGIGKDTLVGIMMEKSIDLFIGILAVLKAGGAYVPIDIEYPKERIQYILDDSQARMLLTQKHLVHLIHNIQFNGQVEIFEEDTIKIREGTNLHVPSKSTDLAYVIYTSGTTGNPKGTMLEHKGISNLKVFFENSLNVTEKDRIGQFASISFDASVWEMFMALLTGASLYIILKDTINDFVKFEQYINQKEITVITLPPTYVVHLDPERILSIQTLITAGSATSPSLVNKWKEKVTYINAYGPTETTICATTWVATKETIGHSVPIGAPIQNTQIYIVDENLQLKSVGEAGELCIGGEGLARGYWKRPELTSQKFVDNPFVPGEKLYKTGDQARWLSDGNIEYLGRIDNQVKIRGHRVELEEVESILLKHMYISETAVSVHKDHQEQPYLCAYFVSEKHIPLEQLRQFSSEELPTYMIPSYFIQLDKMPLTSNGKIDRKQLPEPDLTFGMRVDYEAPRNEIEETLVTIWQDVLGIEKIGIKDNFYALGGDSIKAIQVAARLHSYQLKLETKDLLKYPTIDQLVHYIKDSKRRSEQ
Assay: Fluorescence dose-response of purified […]-Phe3 with phenylalanine in 100 mM Tris at pH 6.5, room temperature, 1 mM ATP, 2.5 mM MgCl2.
Format: biochemical
Conditions: n = 3
Description: As cpEGFP is sensitive to pH, we conducted a dose-response curve and fluorescence intensity analysis of […]-Phe3 at varying pH levels. […] In addition, we expanded the range of ligand-binding domains (LBDs) applicable to […] and attempted optimization of insertion sites for cpEGFP with limited success. Please refer to Supplemental Note 1 for detailed information.
The study conducted dose–response curve, substrate specificity, and fluorescent spectrum analyses in 100-mM Tris buffer (pH = 7.5), while pH stability experiments were performed in 100-mM Tris buffer at three different pH values (6.5, 7.5, and 8.5) at room temperature. […] Fluorescent signals were detected using a Microplate Reader (Synergy H4, Bio Tek) at an excitation/emission wavelength of 460 nm/510 nm or 480 nm/510 nm. The dose-response curve was determined immediately after the addition of the analyte. The total duration of the measurement was 15 min, with readings taken at one-minute intervals. The dose-response curve was plotted using the fluorescence values obtained after achieving stability in the fluorescence signal. […] The thermal stability of […] was analyzed using the UNcle multifunctional protein stability analysis system. […] Absolute fluorescence quantum yields were measured using an absolute photoluminescence quantum yield spectrometer (FS5, Edinburgh). […]

## N[C@@H](Cc1ccccc1)C(=O)O [Phe, phenylalanine]
  pEC50: 5.69
